# Key:
# [1] = system: bone lesions caused by malignant neoplasms; experiment: Phase I open non-randomized multicenter clinical study; assay type: in vivo; settings: patients; intravenous infusion daily for 5 days, break of 23 days; on free acid basis
# Description: To assess the efficacy and safety of the novel medicinal drug, clinical studies of phase I were conducted according to “Open non-randomized multicenter clinical study” protocol.
# All patients received a single dosing with the study drug in a dose corresponding to the dose level of the cohort with the subsequent weekly follow-up period and at least 2 cycles of multiple dosing. The cycle consisted of daily administration (o.d.) of the drug for 5 days, followed by a break of 23 days. […] According to protocol criteria, the maximum tolerated dose is considered a dose 1 level lower than DLT (5 mg/kg).
# [2] = Thermal behaviour of solutions for lyophilization (DSC); assay type: physicochemical
# Description: Differential Scanning calorimetry (DSC) was used to identify the lowest possible transient temperature in the solution throughout the entire lyophilization process, including freezing and dehydration. For the solutions of most pharmaceutical products, this parameter is represented by the glass transition temperature or “Tgt”. All components and their amounts in the solution contribute to the final value of Tgt. This temperature is usually several degrees below the temperature at which the sintered material can crumble during the lyophilization process (collapse temperature, Tc). Without determining the collapse temperature by such methods as cryomicroscopy, the glass transition temperature can be used to select the primary drying temperature. Until the primary drying is completed, the initial drying temperature should be set in such a manner that there are no vials for which the glass transition temperature has been exceeded (or Tc, if known). Otherwise, the structure of the sintered material may get broken. On the one hand, the lyophilization temperature should be close to Tgt, so that the process proceeds efficiently, and on the other hand, it cannot exceed Tgt due to process requirements and qualitative product parameters. Thus, the values of collapse and glass transition temperature are important parameters for calculating safe upper temperature limits, which can be used for lyophilization. Based on the proposed filling of the vials with the drug (100 mg of active ingredient per vial), potential solutions for filling were prepared. The excipients included sterile water for injection (SWFI), 50 mM succinate and tartrate buffers at pH 5, MgCl2, sulfobutylether β-cyclodextrin (SBEβCD), mannitol and dextran 40. In addition, for solutions containing mannitol, a study of the effect of the annealing stage (the lyophilization process stage when the samples are kept at a certain temperature below the freezing point for a certain period of time) on the improvement the crystallinity of the finished product was performed. […]
# [3] = Succinate buffer, MBC-11 25 mg/mL, MgCl2, 86.5 mmol/L
# [4] = Tartrate buffer, MBC-11 25 mg/mL, MgCl2, 86.5 mmol/L
smiles,measurement,setting,value
"CC(O)(P(=O)(O)O)P(=O)(O)OP(=O)(O)OC[C@H]1O[C@@H](n2ccc(N)nc2=O)[C@@H](O)[C@@H]1O.[Na].[Na].[Na] (stereo partly drawn) [MBC-11, Trisodium salt of 1-((((((2R,3S,4S,5R)-5-(4-amino-2-oxopyrimidine-1(2H)-yl)-3,4-dihydroxytetrahydrofuran-2-yl)methoxy))(hydroxy)phosphoryloxy)(hydroxy)phosphoryl)-1-hydroxyethylphosphonic acid]",maximum tolerated daily dose,[1],5 mg/kg
same,Thermal effect (event): endotherm,"[2]; SWFI, MBC-11 25 mg/mL, MgCl2, 43.25 mmol/L",−21 °C (endotherm)
same,Thermal effect (event): possible crystallization,"[2]; SWFI, MBC-11 25 mg/mL, MgCl2, 43.25 mmol/L + Mannitol, 25 mg/mL",−27 °C
same,Thermal effect (event): specific endothermicity (none crystallization after temperature processing),"[2]; SWFI, MBC-11 25 mg/mL, MgCl2, 43.25 mmol/L + Mannitol, 25 mg/mL, Annealing at −20° C.",−22 °C
same,Thermal effect (event): weak endothermicity (none crystallization after annealing),"[2]; SWFI, MBC-11 25 mg/mL, MgCl2, 43.25 mmol/L + Mannitol, 25 mg/mL, Annealing at −24° C.",−22 °C
same,Thermal effect (event): endothermicity,"[2]; SWFI, MBC-11 25 mg/mL, MgCl2, 86.5 mmol/L",−26 °C (endothermicity)
same,Thermal effect (event),"[2]; SWFI, MBC-11 25 mg/mL, MgCl2, 86.5 mmol/L + Mannitol, 25 mg/mL",Tgt/endothermicity before
same,Thermal effect (event): endothermicity,"[2]; SWFI, MBC-11 50 mg/mL, MgCl2, 86.5 mmol/L",−21 °C (endothermicity)
same,Thermal effect (event),"[2]; SWFI, MBC-11 50 mg/mL, MgCl2, 86.5 mmol/L + Mannitol, 25 mg/mL",Tgt/endothermicity before
same,Thermal effect (event): endothermicity,"[2]; SWFI, MBC-11 50 mg/mL, MgCl2, 173 mmol/L",−26 °C (endothermicity)
same,Thermal effect (event),"[2]; SWFI, MBC-11 50 mg/mL, MgCl2, 173 mmol/L + Mannitol, 25 mg/mL",Tgt/endothermicity before
same,Thermal effect (event): endothermicity,"[2]; SWFI, MBC-11 100 mg/mL, MgCl2, 173 mmol/L",−22 °C (endothermicity)
same,Thermal effect (event): endothermicity,"[2]; SWFI, MBC-11 100 mg/mL, MgCl2, 350 mmol/L",−26 °C (endothermicity)
same,Thermal effect (event): crystallization,[2]; [3],−34 °C (crystallization)
same,Thermal effect (event): endothermicity,[2]; [3],−26 °C (endothermicity)
same,Thermal effect (event),"[2]; Succinate buffer, MBC-11 25 mg/mL, MgCl2, 86.5 mmol/L + Mannitol, 25 mg/mL",Tgt/endothermicity before
same,Thermal effect (event): crystallization,[2]; [4],−30 °C (crystallization)
same,Thermal effect (event): endothermicity,[2]; [4],−22 °C (endothermicity)

# From US11045487B2, “Pharmaceutical preparation treating bone lesions caused by malignant neoplasms” (priority 2016, dated 2021)
